Experimental findings from US11760733B2, “Small molecule regulators of mitochondrial fusion and methods of use thereof” (Washington University, priority 2017, dated 2023) are described below.

In one test the target is T1, Mfn2 HR2 target peptide (Homo sapiens, UniProt O95140).
T1 construct: Gly linker (GGGG after the His tag)
T1 sequence (O95140 with tags, fused parts or gaps limits assumed): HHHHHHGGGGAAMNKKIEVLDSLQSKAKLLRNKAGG
Briefly: HR1 peptide-HR2 target binding assay. The source says: The Mfn-derived fusion-promoting and -inhibiting mini-peptides (simulated to obtain the chemical Mfn agonists in TABLE 1 and TABLE 2) were modified from amino acid heptad repeats (HR) in the HR1 domain and predicted to interact with their counterparts in the carboxyl terminus HR2 domain within the Mfn stalk region (see e.g., FIG. 1, top panel). A high-throughput binding assay was designed whereby the target HR2 peptide sequences, modified to include amino terminal 6×His tags and Gly linkers, were bonded to Ni-chelate resin (20 μg/ml) and used as immobilized “receptor” for amino-FITC-tagged Mfn2 374-384 (agonist ligand) in which the Ser analogous to Ser378 was replaced with Asp to confer the negative charge essential for activity. For antagonist studies the ligand was amino-FITC-tagged Mfn2 406-418. The FITC peptide ligands are suspended at 1 mM in 30% DMSO, 70% water (to minimize spontaneous aggregation) and diluted into binding buffer (de-ionized water) to a final concentration of 25 μM in the presence or absence of competing compound. Dose-dependent loss of resin-bound FITC signal (485 nm excitation/538 nm emission) measured in a 96 well spectrofluorometer represents binding of compound to its HR2 target (see e.g., FIG. 10, FIG. 11). Either the ligand peptide or the receptor peptide can be modified to represent mutations, variations, or posttranslational modifications of Mfn2. […]
Target HR2 peptide sequence modified to include amino terminal 6×His tags and Gly linkers, were bonded to Ni-NTA resin (4.4 μg/ml) (Quiagen) and used as immobilized “receptor” for amino-FITC-tagged Mfn2 374-384 (ligand) in which the Ser analogous to Ser378 was replaced with Asp to confer the negative charge essential for activity. […] Resin-bound FITC signal (485 nm excitation/538 nm emission) measured in a 96 well spectrofluorometer (Spectramax M5e, Molecular Devices) represented binding to HR2 target. Competition binding isotherms were plotted and IC50 values calculated using Prism 7 (Graph Pad).

In test [1] the test system is MFN2 Asp378 and Ala378 mutants. Briefly: Mitochondrial fusion in cells expressing MFN2 Ser378 mutants. Format: cell-based, human. The following applies: phosphomimic Asp378 vs nonphosphorylatable Ala378. The source says:
On the basis of fluorescence resonance energy transfer (FRET) analysis of MFN2 labeled at the N and C termini, mitofusin agonists promoted an open MFN2 conformation favoring mitochondrial fusion, with a rank order paralleling that for HR2 binding and mitochondrial fusion (see e.g., FIG. 11G; compare to FIG. 11B and FIG. 11C), supporting allosteric activation.
Human Mfn2 Ser378 was mutated to Ala or Asp by site-directed mutagenesis using the QuikChange Lightning kit (Agilent Technologies Inc.) and primers: […]
Mfn2 and its mutants were sub-cloned into adenoviral vector Type 5 (dE1/E3) with RGD-fiber modification (Vector Biolabs) using BamHI/XhoI. All constructs were verified by Sanger DNA sequencing. Adeno-viral PINK1 was purchased from Vector Biolabs.

For test [2], the system named is cultured neurons expressing MFN2 T105M or MFN2 R94Q. Briefly: Cultured mouse neurons expressing CMT2A MFN2 mutants. Format: cell-based. On the procedure: Neonatal mouse hippocampal neurons were cultured from brains of one day old Mfn2 T105M or non-transgenic sibling mouse pups as described. After 10 days of differentiating culture neurons were infected with Adeno-Cre to induce Mfn2 T105M expression or Adeno-βgal as a control (50 MOI). After an additional 72 hours mitofusin agonists or DMSO vehicle were added. For static confocal imaging neuronal mitochondria were labeled with adenoviral-expressed mitoGFP plus TMRE. Autophagy was measured by LC3 aggregation in neurons infected with adenoviral LC3-GFP. For time-lapse studies of mitochondrial trafficking bi-cistronic Adeno-Cre/GFP marked Cre expression and mitochondria were labeled with adeno-mitoDsRed. Confocal live cell images were acquired with a time-lapse of 1 frame every 90 seconds for 1 hour.

Test [3] relates to MFN2 T105M sciatic nerves. Briefly: Sciatic nerve axonal mitochondrial motility, agonist applied to nerve. As to conditions: MFN2 T105M mouse sciatic nerve. On the procedure:
Sciatic nerves of 12-18 week old male or female MFN2 T105M mice were removed en bloc with the lumbar spine and axotomy at the tibial nerve, stained with TMEM ([…]) for 30 minutes in prewarmed Neurobasal Medium without phenol red (Thermo Fisher Scientific) at room temperature, washed, and maintained on the stage of a Nikon A1Rsi Confocal Microscope at 37 degrees C. for time-lapse confocal studies. Images were acquired with a 40× oil immersion objective at 1 frame every 5 or 10 seconds for sequential 10 minute periods. Mitofusin agonist chimera B-A/I was added after the first 10 minute imaging period (final concentrations of […]) and nerve axons imaged for another 40 minutes. Because there was no difference in mitochondrial trafficking or response to mitofusin agonist between male and female mice, the data were combined.

Molecules are shown by their SMILES. “Also recorded” adds a separate entry of the source.

With `CC1CCCCC1NC(=O)NCCSc1nnc(C2CC2)n1-c1ccccc1` (racemic) [B-A/I, 1-(2-((5-cyclopropyl-4-phenyl-4H-1,2,4-triazol-3-yl)thio)ethyl)-3-(2-methylcyclohexyl)urea], the “competition for minipeptide binding at MFN2 HR2 site” value at Mfn2 HR2 target peptide is listed as “competed for minipeptide binding”. Besides, in test [1], the “selectivity of fusogenic effect for MFN2 Ser378 mutants” value is “non-selective”. Moreover, the “mitochondrial fragmentation/dysmorphology, hypopolarization, autophagy in neurons” value in test [2] (MFN2 R94Q or T105M) is reported as “concomitantly corrected”. The “mitochondrial clumping and motility in neurons” value in test [2] (MFN2 T105M) is “restored mitochondrial motility”. Moreover, the “sciatic nerve axonal mitochondrial motility” value in test [3] was “rapidly reverses mitochondrial dysmotility; also recorded: restored mitochondrial motility to within normal levels”.
